Measured values taken from ChEMBL document CHEMBL4840371 (Bioorg Med Chem, 2021).

Experiments:
[1] = Inhibition of Escherichia coli recombinant his-tagged DHDPS using (S)-aspartate-semialdehyde as a substrate preincubated for 12 mins followed by substrate addition by UV-Vis spectrophotometer based coupled DHDPS-DHDPR assay
HepG2 = test: Cytotoxicity against human HepG2 cells assessed as reduction in cell viability measured after 48 hrs by MTT assay; format: cell-based; details: HepG2, 48 h
HEK293 = test: Cytotoxicity against HEK293 cells assessed as reduction in cell viability measured after 48 hrs by MTT assay; format: cell-based; details: Homo sapiens, HEK293, 48 h
[2] = Aqueous solubility of the compound; format: physicochemical; details: buffer
[3] = Inhibition of Campylobacter jejuni DHDPS using ASA as a substrate in presence of NADPH by DHDPS-DHDPR coupled assay

Compound	IC50 [1] [µM]	other results
CCOC(=O)CSC1=NC(=O)/C(=C/c2ccc(OC)cc2)S1		solubility [2]: Insoluble
O=C(O)CN1C(=O)S/C(=C\c2cccnc2)C1=O	138	
COc1ccc(/C=C2\SC(=S)N(CC(=O)O)C2=O)cc1	540	EC50 (HepG2): 200 µM; EC50 (HEK293): 200 µM
COc1cccc(/C=C2\SC(=O)N(CC(=O)O)C2=O)c1	110	
COc1ccc(/C=C2\NC(=S)NC2=O)cc1	323	
COc1ccc(/C=C2\SC(=S)NC2=O)cc1	> 500	
CN(C)c1ccc(/C=C2\SC(=O)N(CC(=O)O)C2=O)cc1	> 500	
COc1ccc(/C=C2\NC(=O)NC2=O)cc1	124	
COc1ccc(/C=C2\SC(=O)N(CC(N)=O)C2=O)cc1		solubility ([2]; read-out: solubility): < 31 µM
NCCCC[C@@](N)(CC[C@](N)(CCCCN)C(=O)O)C(=O)O		Ki [3]: 0.14 µM
COc1ccc(/C=C2\SC(=O)N(CC(=O)O)C2=O)cc1OC	116	
O=C(O)CN1C(=O)S/C(=C\c2ccccc2Cl)C1=O	137	
COc1ccc(/C=C2\SC(=O)N(CC#N)C2=O)cc1		solubility ([2]; read-out: solubility): < 250 µM
O=C(O)CN1C(=O)S/C(=C\c2ccc(OC(F)(F)F)cc2)C1=O	98	
O=C(O)CN1C(=O)S/C(=C\c2ccc(O)cc2O)C1=O	162	
COc1ccc(CC2SC(=O)N(CC(=O)O)C2=O)cc1 (stereo not given)	> 500	
CSc1ccc(/C=C2\SC(=O)N(CC(=O)O)C2=O)cc1	125	
O=C(O)CN1C(=O)S/C(=C\c2ccc(O)c(Cl)c2)C1=O	316	
O=C(O)CN1C(=O)S/C(=C\c2ccc3ccccc3n2)C1=O	110	
O=C(O)CN1C(=O)S/C(=C\c2ccc(C(F)(F)F)cc2)C1=O	122	
COc1ccc(/C=C2\SC(=O)N(CCC(=O)O)C2=O)cc1	> 250	
O=C(O)CN1C(=O)S/C(=C\c2ccc(O)cc2)C1=O	103	
O=C(O)CN1C(=O)S/C(=C\c2cccc(Cl)c2)C1=O	121	
COc1cccc(/C=C2\SC(=O)N(CC(=O)O)C2=O)c1OC	108	
Nc1ccc(/C=C2\SC(=O)N(CC(=O)O)C2=O)cc1	153	
COc1ccc(/C=C2\NC(=S)N(CC(=O)O)C2=O)cc1	222	EC50 (HepG2): > 500 µM; EC50 (HEK293): > 500 µM
COc1ccc(/C=C2\SC(=N)NC2=O)cc1	156	

Further molecules by falling IC50 [1], results first:

IC50 [1] [µM]	Compound	other results
97	O=C(O)CN1C(=O)S/C(=C\c2cccc3ccccc23)C1=O	EC50 (HepG2): > 500 µM; EC50 (HEK293): > 500 µM
94	O=C(O)CN1C(=O)S/C(=C\c2c[nH]cn2)C1=O	
92	O=C(O)CN1C(=O)S/C(=C\c2ccc(F)cc2)C1=O	
90	O=C(O)CN1C(=O)S/C(=C\c2ccncc2)C1=O	
89	COc1ccc(/C=C2\SC(=O)N(Cc3nnn[nH]3)C2=O)cc1	
87	O=C(O)CN1C(=O)S/C(=C\c2ccsc2)C1=O	EC50 (HepG2): > 500 µM; EC50 (HEK293): > 500 µM
84	O=C(O)CN1C(=O)S/C(=C\c2ccc(Cl)cc2)C1=O	
80	Cc1ccc(/C=C2\SC(=O)N(CC(=O)O)C2=O)cc1	
80	O=C(O)CN1C(=O)S/C(=C\c2ccccn2)C1=O	
80	O=C(O)CN1C(=O)S/C(=C\c2ccccc2)C1=O	
80	N#Cc1ccc(/C=C2\SC(=O)N(CC(=O)O)C2=O)cc1	
76	O=C(O)CN1C(=O)S/C(=C\c2ccc3ccccc3c2)C1=O	EC50 (HepG2): 200 µM; EC50 (HEK293): 200 µM
74	O=C(O)CN1C(=O)S/C(=C\c2ccc(Br)cc2)C1=O	
72	CCOc1ccc(/C=C2\SC(=O)N(CC(=O)O)C2=O)cc1	
72	O=C(O)CN1C(=O)S/C(=C\c2cccs2)C1=O	EC50 (HepG2): > 500 µM; EC50 (HEK293): > 500 µM
71	O=C(O)CN1C(=O)S/C(=C\c2ccc(OCc3ccccc3)cc2)C1=O	EC50 (HepG2): 200 µM; EC50 (HEK293): 200 µM
71	COc1ccccc1/C=C1\SC(=O)N(CC(=O)O)C1=O	
71	COc1ccc(/C=C2\SC(=O)NC2=O)cc1	EC50 (HepG2): 200 µM; EC50 (HEK293): 172 µM
70	O=C(O)CN1C(=O)S/C(=C\c2ccc(C(=O)O)cc2)C1=O	
68	CC(=O)Nc1ccc(/C=C2\SC(=O)N(CC(=O)O)C2=O)cc1	
67	COc1ccc(/C=C2\SC(=O)N(CCCC(=O)O)C2=O)cc1	
66	COc1ccc(/C=C2\NC(=O)N(CC(=O)O)C2=O)cc1	EC50 (HepG2): > 500 µM; EC50 (HEK293): > 500 µM
59	O=C(O)CN1C(=O)S/C(=C\c2ccc(=O)[nH]c2)C1=O	
47	COc1ccc(/C=C2\SC(=O)N(CC(=O)O)C2=O)cc1	EC50 (HepG2): > 500 µM; EC50 (HEK293): > 500 µM
46	COc1ccc(/C=C2\SC(=O)N(CC(=O)O)C2=O)cn1	EC50 (HepG2): > 500 µM; EC50 (HEK293): > 500 µM
39	COc1ccc(C=C2SC(=O)N(CC(=O)O)C2=O)cc1 (mixture of isomers)	
